# Laboratory results reported in US8227483B2, “Polymorphs of 6-beta-naltrexol” (Mallinckrodt LLC, priority 2008, dated 2012).
# Tests used:
# chronic dependence model = settings: cited from earlier work
# acute dependence model = settings: high doses; cited from earlier work
# [1] = in vivo; compared with naloxone and naltrexone; cited from earlier work
# [2] = solubility in a mixture of alcohol and water; assay type: physicochemical; settings: compared with Form IB
# [3] = resistance to degradation in air; assay type: physicochemical; settings: compared with Form IB
# water vapor sorption = assay type: physicochemical
# Description: Water Vapor Sorption. Data were collected with a SGA-100 water vapor sorption balance (VTI Corporation, Hialeah, Fla.). A portion of the selected sample was weighed into a platinum sample pan and placed into the instrument. The sample was cycled from low (5%) relative humidity (RH) to high (95%) RH to low humidity (i.e., sorption and desorption events) at a constant temperature of 25° C., in 5% RH intervals. The sample was held at each interval until the equilibrium condition was met (i.e., 0.0005% for 3 min, with a maximum of 600 min).
# [4] = relative stability of the crystalline forms; assay type: physicochemical; settings: dihydrate form of Form IIIS
# Excerpt: Above this humidity, Form IIIS absorbed approximately 1.4%-1.5% water at 95% RH.
# [5] = slurry experiments (stability of the crystalline forms); assay type: physicochemical
# Description: Slurry Experiments. The stability of the crystalline forms was analyzed using slurry experiments. A portion of the solvent of interest was saturated with 6-beta-naltrexol base or 6-beta-naltrexol hydrochloride in a small vial. Additional 6-beta-naltrexol base or 6-beta-naltrexol hydrochloride was then added to the vial, and the resulting slurry was stirred using a magnetic stir bar.
smiles,measurement,setting,value
"Oc1ccc2c3c1OC1C(O)CC[C@@]4(O)[C@@H](C2)N(CC2CC2)CC[C@]314 (stereo partly drawn) [6-beta-naltrexol, morphinan-3,6,14-triol,17-(cyclopropylmethyl)-4,5-epoxy]",fold less potent than naloxone in precipitating withdrawal,chronic dependence model; relative to naloxone,~30 fold
same,fold less potent than naltrexone in precipitating withdrawal,chronic dependence model; relative to naltrexone,approximately 77 fold
same,withdrawal precipitated,acute dependence model,only minimal withdrawal
same,duration of action,[1],longer duration of action than naloxone and naltrexone
"Oc1ccc2c3c1O[C@H]1[C@H](O)CC[C@@]4(O)[C@@H](C2)N(CC2CC2)CC[C@]314 [Form IIB, 6-beta-naltrexol base]",solubility,[2],greater solubility in a mixture of alcohol and water than Form IB
same,resistance to degradation in air,[3],more resistant to degradation in air than Form IB
"Cl.Oc1ccc2c3c1O[C@H]1[C@H](O)CC[C@@]4(O)[C@@H](C2)N(CC2CC2)CC[C@]314 [Form IIIS, 6-beta-naltrexol hydrochloride]",stability to humidity,"water vapor sorption; above 15% RH, 25° C.",reasonably stable up to approximately 90% RH
same,solid form at the conclusion of the sorption experiment (pXRD),water vapor sorption; after sorption/desorption cycle 5%-95%-5% RH,still comprised predominately Form IIIS
same,water absorbed,"water vapor sorption; at 95% RH, 25° C.",1.4%-1.5%
same,hysteresis during desorption,"water vapor sorption; desorption, 25° C.",minimal hysteresis
same,water lost,"water vapor sorption; humidities below 15% RH, 25° C., of its original 8.9% water content",approximately 4.5%
same,relative stability among crystalline forms,[4],most stable of all the crystalline forms of 6-beta-naltrexol hydrochloride
"Cl.Oc1ccc2c3c1O[C@H]1[C@H](O)CC[C@@]4(O)[C@@H](C2)N(CC2CC2)CC[C@]314 [Form IIS, 6-beta-naltrexol hydrochloride]",time the form was stable in slurry,[5]; isopropyl alcohol slurry,at least 8 days
"Cl.Oc1ccc2c3c1O[C@H]1[C@H](O)CC[C@@]4(O)[C@@H](C2)N(CC2CC2)CC[C@]314 [Form IVS, 6-beta-naltrexol hydrochloride]",time the form was stable in slurry,[5]; ethyl alcohol slurry,at least 15 days
